Assay results published in US12186330B2, “Compositions for improving cell viability and methods of use thereof” (Amylyx Pharmaceuticals Inc., priority 2013, dated 2025).
Values joined by “and” are separate entries in the source; they are usually repeats but may differ in a detail not shown here. Equal entries are not always repeated.

What was measured:
[1] = system: rat cortical neuron culture; test: Cell death by LDH release after hydrogen peroxide exposure, peroxide exposure neuronal cell model; format: cell-based; conditions: for Cell Death Evaluated By LDH Following H2O2 Exposure, Average (%): compounds added 24 h before and for 24 h after, TUDCA 100 uM, 4-PBA 1 mM, DFX 100 uM, n=6, No Treatment = 0%; for protection against cell death after peroxide exposure (FIG. 2, significance): LDH, H2O2 exposure, rat cortical neuron culture
Experimental: (§1) Cortical mixed cultures were prepared from E18 Wistar rat embryos (Laboratory Animal Center, Kuopio, Finland). The cortices were dissected out and the tissue was cut to small pieces. The cells were separated by 15-min incubation with DNase and papain. The cells were collected by centrifugation (1500 rpm, 5 min). The tissue was triturated with a pipette and the cells were plated (3×10^5 cells/cm^2) on poly-L-lysine coated 48 wells in MEM supplemented with 2 g/l glucose, 2 mM glutamine, 0.1 μg/ml gentamicin, and 10% heat-inactivated horse serum (HS-HI) and […] bovine serum (FBS-HI). After three days in vitro, medium containing MEM with supplements and 5% both sera was changed to the cells. On day 6 in vitro, the unwanted cell division was inhibited by adding cytosine arabinoside (10 μM final concentration) for 24 h. The cultures were refed with MEM with supplements and 5% HS-HI before experiments.
(§2) The wells in good shape were chosen for experiment on day 10 in vitro. Test compounds were diluted in MEM with supplements and 5% HS-HI. 24 h later, 300 μM NMDA for 24 h was used as a control for total neuronal death, and H2O2 for 1 h was used to induce approximately 30-60% cell death. DFX (100 μM) was used as a potential positive control for inhibition of H2O2-induced cell death. Wells treated with medium only served as 0-control. Test compounds were pipetted to the cells 24 h before adding H2O2. After 60 min, the medium was removed and media containing the compounds was pipetted to the wells for 24 h.
After 24 h the culture media of all wells was collected and possible cell debris was removed by centrifugation (13 000 rpm, 3 min). A-100-μl aliquot was pipetted into a micro titer plate as duplicates, and equal amount of LDH reagent was pipetted to the wells. The absorbance at 340 nm was measured immediately using a 3-min kinetic measurement protocol in Multiskan Ascent ELISA reader (Thermo, Finland). The change in absorbance/min was determined, which is directly proportional to the released LDH (=cell death).
(§3) The number of wells per compound concentration used was 6 (n=6). One (1) concentration of 100 μM TUDCA and 1 mM 4-PBA separately and together were studied. Statistical analysis were calculated on Microsoft excel. The values were analyzed two-tailed, equal variance t-tests comparing all conditions to all other conditions.

[2] = system: rat cortical neuron culture; test: Cell viability by PrestoBlue after hydrogen peroxide exposure, peroxide exposure neuronal cell model; format: cell-based; conditions: for protection of cell viability against peroxide exposure (FIG. 1, significance): PrestoBlue, H2O2 exposure, rat cortical neuron culture
Experimental: as §1, §2
After the cell culture medium was collected for LDH measurement, 100 μl PrestoBlue solution (1:10 dilution of PrestoBlue reagent (Invitrogen, # A13261, lot 915815C) in culture medium) was added to the wells for 1 h incubation at +37° C. CO2 incubator. Fluorescence at 560 nm excitation/615 nm emission was measured using Victor fluororeader (PerkinElmer).
as §3

[3] = H2O2 40 uM for 1 h, compounds added 24 h before and for 24 h after, TUDCA 100 uM, 4-PBA 1 mM, DFX 100 uM, n=6, No Treatment = 100%
[4] = Rattus norvegicus, Cortical neurone, H2O2 40 uM for 1 h, compounds added 24 h before and for 24 h after, TUDCA 100 uM, 4-PBA 1 mM, DFX 100 uM, n=6, No Treatment = 100%, read-out: Cell Viability Evaluated By PrestoBlue Following H2O2 Exposure, Average (%)

Structure (SMILES)	Cell Death Evaluated By LDH Following H2O2 Exposure, Average (%) ([1]; H2O2 40 uM for 1 h)	protection against cell death after peroxide exposure (FIG. 2, significance) [1]	Cell Viability Evaluated By PrestoBlue Following H2O2 Exposure, Average (%) [2, 3] [%]	protection of cell viability against peroxide exposure (FIG. 1, significance) [2]	viability at 1000 µM [2, 4] [%]	Cell Death Evaluated By LDH, Average (%), H2O2 exposure alone ([1]; H2O2 40 uM for 1 h, no test compound (the text's 'control')) [%]	viability at 40 µM ([2]; Rattus norvegicus, Cortical neurone, 1 h, H2O2 40 uM for 1 h, no test compound (the text's 'control'), read-out: Cell Viability Evaluated By PrestoBlue, Average (%), H2O2 exposure alone) [%]	Cell Death Evaluated By LDH, Average (%), NMDA negative control ([1]; NMDA 300 uM for 24 h, control for total neuronal death) [%]	viability at 100 µM [2, 4] [%]
O=C(O)CCCc1ccccc1 [4-PBA, 4-phenylbutyric acid]	46.5% and 46.47%	does not provide significant protection	72.20	does not provide significant protection	72				
OO [H2O2, hydrogen peroxide]						62.48	48.6		
CN[C@H](CC(=O)O)C(=O)O [NMDA]								100	
C[C@H](CCC(=O)NCCS(=O)(=O)O)[C@H]1CC[C@H]2[C@@H]3[C@@H](O)C[C@@H]4C[C@H](O)CC[C@]4(C)[C@H]3CC[C@]12C [TUDCA, tauroursodeoxycholic acid]	60.4% and 60.37%	does not provide significant protection	58.59	does not provide significant protection					59
